The text below walks through data of patent US8309725B2 (priority 2007, dated 2012).

The target of the first experiment is T1, κ receptor (Cavia porcellus, UniProt P41144).
T1 construct: sucrose solution (0.32 M) was added to five guinea pig brains and the mixture was homogenized; from tissue; host or cells: whole guinea pig brain membrane homogenate
T1 sequence (P41144 whole entry): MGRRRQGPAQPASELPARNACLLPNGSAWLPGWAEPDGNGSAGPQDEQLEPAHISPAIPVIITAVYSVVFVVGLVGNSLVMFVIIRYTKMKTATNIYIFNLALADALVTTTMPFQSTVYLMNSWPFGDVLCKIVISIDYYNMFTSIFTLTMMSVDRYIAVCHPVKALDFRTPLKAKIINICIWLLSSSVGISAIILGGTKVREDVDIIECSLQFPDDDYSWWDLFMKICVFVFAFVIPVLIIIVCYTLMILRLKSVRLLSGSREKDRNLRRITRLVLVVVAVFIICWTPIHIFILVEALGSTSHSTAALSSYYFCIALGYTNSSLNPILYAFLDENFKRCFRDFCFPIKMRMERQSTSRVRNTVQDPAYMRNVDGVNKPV
The experiment in a line: biochemical. The class given is binding, guinea pig.
Conditions: not given
As to `O=C(Cc1ccc(Cl)c(Cl)c1)N1CCN(Cc2cccnc2)[C@@H]2CCC[C@H](N3CCCC3)[C@H]21` (racemic) [Example 22, 2-(3,4-dichlorophenyl)-1-{(4aRS,8SR,8aRS)-4-[(pyridin-3-yl)methyl]-8-(pyrrolidin-1-yl)perhydroquinoxalin-1-yl}ethan-1-one], the Ki – broadly, a dissociation constant, usually derived from enzyme kinetics or from competition with a known ligand – was found to be 0.13 ± 0.02 nM.

Consider `CCCCN1CCN(C(=O)Cc2ccc(Cl)c(Cl)c2)[C@H]2[C@H]1CCC[C@@H]2N1CCCC1` (racemic) [Example 19, 1-[(4aRS,8SR,8aRS)-4-butyl-8-(pyrrolidin-1-yl)perhydroquinoxalin-1-yl]-2-(3,4-dichlorophenyl)-ethan-1-one], for which the affinity corresponds to a Ki of 3.1 ± 1.8 nM.

`COC(=O)CC(=O)N1CCN(C(=O)Cc2ccc(Cl)c(Cl)c2)[C@H]2[C@H]1CCC[C@@H]2N1CCCC1` (racemic) [Example 13, methyl 3-{(4aRS,8SR,8aRS)-1-[2-(3,4-dichlorophenyl)acetyl]-8-(pyrrolidin-1-yl)-perhydroquinoxalin-4-yl}-3-oxopropionate] displayed a Ki of 11 ± 5.6 nM.

The compound `COc1ccc(CN2CCN(C(=O)Cc3ccc(Cl)c(Cl)c3)[C@H]3[C@H]2CCC[C@@H]3N2CCCC2)cc1` (racemic) [Example 20, 2-(3,4-dichlorophenyl)-1-[(4aRS,8SR,8aRS)-4-(4-methoxybenzyl)-8-(pyrrolidin-1-yl)-perhydroquinoxalin-1-yl]ethan-1-one] gave a Ki of 6.8 ± 2 nM.

Compound `O=C(Cc1ccc(Cl)c(Cl)c1)N1CCN(Cc2ccccn2)[C@@H]2CCC[C@H](N3CCCC3)[C@H]21` (racemic) [Example 21, 2-(3,4-dichlorophenyl)-1-{(4aRS,8SR,8aRS)-4-[(pyridin-2-yl)methyl]-8-(pyrrolidin-1-yl)perhydroquinoxalin-1-yl}ethan-1-one] displayed a Ki of 4.2 ± 2.6 nM.

Staying with this experiment, now noted: read-out: κ: Ki ± SEM.
For the compound `COC(=O)CC(=O)N1CCN(C(=O)Cc2ccc(Cl)c(Cl)c2)C2C(N3CCC(O)C3)CCCC21` (stereo not drawn) [Example 17, methyl 3-{(4aRS,8SR,8aRS)-1-[2-(3,4-dichlorophenyl)acetyl]-8-[(3SR)- and (3RS)-3-hydroxypyrrolidin-1-yl]-perhydroquinoxalin-4-yl}-3-oxopropionate], the Ki was determined as 18 ± 2.2 nM.

For the compound `COC(=O)N1CCN(C(=O)Cc2ccc(Cl)c(Cl)c2)C2C(N3CCC(O)C3)CCCC21` (stereo not drawn) [Example 15, methyl{(4aRS,8SR,8aRS)-1-[2-(3,4-dichlorophenyl)acetyl]-8-[(3SR)- and (3RS)-3-hydroxypyrrolidin-1-yl]-perhydroquinoxalin-4-yl}carboxylate], the Ki was found to be 11 ± 2.8 nM.

Regarding `O=C(Cc1ccc(Cl)c(Cl)c1)N1CCN(Cc2ccccc2)C2CCCC(N3CCC(O)C3)C21` (stereo not drawn) [Example 5, 1-{(4aRS,8SR,8aSR)-4-benzyl-8-[(3SR)- and (3RS)-3-hydroxypyrrolidin-1-yl]perhydroquinoxalin-1-yl}-2-(3,4-dichlorophenyl)ethan-1-one], the Ki is 6.6 ± 1.4 nM.

Take `O=C(Cc1ccc(Cl)c(Cl)c1)N1CCN(Cc2cccnc2)C2CCCC(N3CCC(O)C3)C21` (stereo not drawn) [Example 25, 2-(3,4-dichlorophenyl)-1-{(4aRS,8SR,8aSR)-4-[(pyridin-3-yl)methyl]-8-[(3SR)- and (3RS)-3-hydroxypyrrolidin-1-yl]perhydroquinoxalin-1-yl}ethan-1-one]: the Ki was 3.8 ± 0.7 nM.

Turning to `O=C(O)CC(=O)N1CCN(C(=O)Cc2ccc(Cl)c(Cl)c2)C2C(N3CCC(O)C3)CCCC21` (stereo not drawn) [Example 16, 3-{(4aRS,8SR,8aRS)-1-[2-(3,4-dichlorophenyl)acetyl]-8-[(3SR)- and (3RS)-3-hydroxypyrrolidin-1-yl]-perhydroquinoxalin-4-yl}-3-oxopropionic acid], the Ki came out at 482 ± 113 nM.

On to `O=C(c1ccccc1)N1CCN(C(=O)Cc2ccc(Cl)c(Cl)c2)C2C(N3CCC(O)C3)CCCC21` (stereo not drawn) [Example 14, 1-{(4aRS,8SR,8aSR)-4-benzoyl-8-[(3SR)- and (3RS)-3-hydroxypyrrolidin-1-yl]-perhydroquinoxalin-1-yl}-2-(3,4-dichlorophenyl)ethan-1-one], for which the Ki is 22 ± 5.6 nM.

The test system of another experiment is male NMRI mice.
Experiment: not given
The following applies: mouse, in vivo.
For the compound “2-(3,4-dichlorophenyl)-1-{(4aRS,8SR,8aSR)-8-[(3SR)-3-hydroxypyrrolidin-1-yl]perhydroquinoxalin-1-yl}ethan-1-one and 2-(3,4-dichlorophenyl)-1-{(4aRS,8SR,8aSR)-8-[(3RS)-3-hydroxypyrrolidin-1-yl]perhydroquinoxalin-1-yl}ethan-1-one [Example 2]”, the “reduction in the pain in the models of the centrally mediated types of pain” value is reported as “no significant reduction in the pain”.
